We go through one substance from patent US7892767B2, “Phosphospecific chemokine receptor antibodies” (Washington University in St. Louis, priority 2005, dated 2011).

The target in assay [1] is T1, CXCR4 (Mus musculus, UniProt P70658).
T1 construct: endogenous in cells; host or cells: primary mouse astrocytes (Nf1 flox/flox, infected with Ad-LacZ or Ad-Cre)
Put plainly: CXCL12-induced CXCR4 phosphorylation (pCXCR4 western blot), Nf1−/− astrocytes. Format: cell-based. The note with it: CXCL12 0.1 μg/ml, at 5 minutes. The procedure:
(§1) Western Blot Analysis. Whole-cell extracts were obtained by lysing cells with lysis buffer (20 mM Tris pH 7.4, 137 mM NaCl, 10% Glycerol and 1% Triton-X-100) supplemented with phosphatase inhibitor cocktail set II (Calbiochem, La Jolla, Calif.), PMSF (1 mM), leupeptin, (0.005 mg/ml) and aprotinin (0.005 mg/ml). The proteins were resolved with 10% Bis-Tris gels (Invitrogen) and transferred onto the nitrocellulose membrane Hybond ECL (Amersham, Piscataway, N.J.) according to standard protocols. Membranes were incubated with polyclonal antibodies CXCR4 (1:500), pErk½ (1:1200), pan Erk½ (1:150), pAkt (1:500), pan Akt (1:1000), pGRK2 (1:250), and pCXCR4 (1:200) overnight at 4° C. This was followed by incubation with horseradish peroxidase-conjugated secondary antibody (1:15,000; Bio-Rad). Peroxide activity was detected using the enhanced chemiluminescence Supersignal West Dura system (Pierce, Rockford, Ill.) Mouse anti-actin antibody was used as a loading control. Quantitation of western blots was performed by densitometry using Image J software from the NIH.
(§2) Among the primary mechanisms for controlling GPCR effects on cAMP production is receptor desensitization (140). This process is initiated when ligand occupied GPCR (e.g., CXCR4) is phosphorylated by G protein receptor kinase (GRK). […]
(In western blotting, separated proteins are transferred to a membrane and probed.)

The subject of assay [2] is Daoy medulloblastoma cells. The experiment in a line: Viable cell number by trypan blue exclusion, Daoy cells. The note with it: CXCL12 1 μg/ml. The assay is classed as cell-based, human. On the procedure: Brain tumor cell cultures. Cells were cultured in αMEM (Invitrogen, Carlsbad, Calif.) supplemented with 10% FCS (Biomedia, Foster City, Calif.) in the presence of penicillin streptomycin at 37° C. with 5% CO2.
(§3) Growth factor and drug treatment. Following serum-starvation for 24 hours, astrocytes, granule cells, U87 cells and Daoy cells, were treated with 1 μg/ml CXCL12 (PeproTech), […] AMD3465 (kind gift from Simon Fricker, AnorMED, Langley, BC, Canada) (200 μM Rolipram (Sigma), or 10 μM Forskolin (Sigma) as indicated.

The next assay deals with GPCs. Put plainly: Cell number by trypan blue exclusion, primary GPCs. Format: cell-based, mouse. The note with it: CXCL12 1 μg/ml, 24 hours. The procedure:
(§4) Primary granule neuron cultures. Primary cultures of purified GPCs were prepared from 6 day-old BALB/C mice as described (58). Cerebella were dissected and meninges were removed. After incubation with 0.1% trypsin (Sigma) in HBSS with 125 units/ml Dnase (Sigma), 0.5 mM EDTA for 20 minutes at 37° C., cells were pelleted and washed three times with HBSS. The final cell suspension was passed through a […] nylon mesh cell strainer (Falcon, Franklin Lakes, Mich.). Cells were diluted to 2×10^6 cells/ml in DMEM/F12 (Gibco BRL, Gaithersburg, Md.) supplemented with N2 (Gibco BRL), 20 mM KCl, and 36 mM glucose.
as §3

Assay [3] deals with PDE4A-expressing Daoy cells. The experiment in a line: Viable cell number, PDE4A-expressing Daoy cells. The assay is classed as cell-based, human. The note with it: CXCL12 1 μg/ml, AMD 3465 2.5 μg/ml, Rolipram 200 μM. The procedure:
PDE4A expression. U87 and Daoy cells (15,000 cells) were transiently transfected for 48 h with a plasmid encoding a transgene for the tet-off transactivator (tTA) alone (kind gift from Dr. Louis Muglia, Washington University School of Medicine, St. Louis, Mo.), a plasmid containing a transgene for tet-off regulated expression of phosphodiesterase 4A (PDE4A) alone (kind gift from Dr. James Cherry, Boston University, Boston, Mass.), or a combination of both plasmids, using lipofectamine (Invitrogen) according to the manufacturer's instructions. Plasmid DNA (2 μg) was mixed with lipofectamine (5 μl) per 35 mm^2 dish. Transfection proceeded for 9 hours prior to exchanging transfection media for αMEM supplemented with 10% FCS.

Assay [4] deals with T1, CXCR4. Put plainly: CXCL12-induced CXCR4 phosphorylation (pCXCR4 western blot), wild-type (Nf1+/+) astrocytes. Format: cell-based. The note with it: CXCL12 0.1 μg/ml, at 5 minutes. On the procedure:
as §1, §2

The test system of assay [5] is Daoy medulloblastoma cells. The experiment in a line: Intracellular cAMP by ELISA, Daoy medulloblastoma cells. The assay is classed as cell-based, human. The note with it: 1 μg/ml CXCL12. The procedure: as §3
cAMP measurement in cell culture. cAMP concentration was measured using a Correlated-EIA™. Enzyme Immunoassay Kit (Assay Designs Inc. MI) according to the manufacturer's instructions. Briefly, U87 or Daoy cells were serum-starved for 24 hours, and treated with CXCL12 (1 μg/ml), Rolipram (200 μM), or forskolin (10 μM). Cells were lysed in 0.1M HCL and particulate matter was removed by centrifugation at >600×g for 10 min. The supernatants were dried down and resuspended in assay buffer.
(§5) Determination of cAMP concentration. Competitive immunoassay for cAMP concentration was performed exactly as directed by the manufacturer. Absorbance at 405 nm was measured and cAMP concentrations were determined by calculation based on a standard curve. Protein concentrations were measured by colormetric assay (Bio-Rad, Hercules, Calif.) according to the manufacturer's directions. cAMP values were normalized to protein for each sample individually.
In general terms: In an ELISA, binding on a coated surface is turned into a signal by an enzyme label.

The test system of assay [6] is cerebellar granule precursor cells (GPCs). The experiment in a line: Intracellular cAMP by ELISA, primary cerebellar granule precursor cells. Format: cell-based, mouse. The note with it: 1 μg/ml CXCL12. On the procedure: as §4, §3, §5
A further assay relates to Nf1−/− astrocytes. The experiment in a line: Cell cycle analysis by flow cytometry, Nf1−/− astrocytes. The note with it: CXCL12 0.1 μg/ml. Format: cell-based, mouse. The procedure: Cell Cycle Analysis. Ethanol fixed cells were washed in PBS and resuspended in PI staining solution containing 0.1% Triton-X-100, 0.2 mg/ml RNase A, and 20 ug/ml Propidium Iodide in PBS. The cells were incubated for 15 minutes at 37° C., in the dark. Flow Cytometry was performed on a FACSCalibur system (Becton Dickinson, San Jose, Calif.) Data were analyzed using CellQuest software (Becton Dickinson, San Jose, Calif.). Aggregates and debris were excluded from the analysis.
The basis for the in vitro growth effects of CXCL12 was further evaluated by cell cycle analysis of asynchronously growing cultures of Nf1+/+ and Nf1−/− astrocytes in the presence and absence of CXCL12. In agreement with measurements of cell number, 15% more Nf1−/− astrocytes were in the S+G2M fraction of the cell cycle compared to Nf1+/+ astrocytes (P<0.005, data not shown). This decrease in Nf1+/+ cell number in response to CXCL12 was the result of both a 6% decrease in proliferation (S+G2-M) and a 38+/−8% increase in apoptosis (sub-G0). The increase in Nf1−/− cell number was the result of a 27+/−12% decline in apoptosis alone (FIG. 9C).

T1 sequence (P70658 whole entry): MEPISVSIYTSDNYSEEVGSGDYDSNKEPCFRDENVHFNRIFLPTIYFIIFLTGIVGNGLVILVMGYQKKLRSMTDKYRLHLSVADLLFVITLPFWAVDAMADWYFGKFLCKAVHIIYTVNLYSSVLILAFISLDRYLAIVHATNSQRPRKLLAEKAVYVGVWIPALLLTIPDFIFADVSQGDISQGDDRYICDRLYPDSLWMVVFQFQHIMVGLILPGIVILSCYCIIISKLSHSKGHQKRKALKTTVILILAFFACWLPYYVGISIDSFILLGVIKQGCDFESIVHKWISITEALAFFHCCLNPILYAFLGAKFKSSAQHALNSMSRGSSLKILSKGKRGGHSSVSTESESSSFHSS

As for “CXCL12: chemokine ligand of CXCR4 (Peprotech)”, the “decrease in pCXCR4” value with CXCR4 [1] is listed as 0.56+/−0.14 fold. Also, the “increase in cell number” value in assay [2] is reported as “greater than 2 fold”; in assay [2] (serum-free), “greater than 200%”. The results for the “effect on cell number” value (in the assay on GPCs; in assay [3]) were “no effect” and “no longer any benefit”, respectively. The “increase in pCXCR4” value with CXCR4 [4] is reported as 2.6+/−0.06 fold. Moreover, the “cyclic AMP levels after CXCL12” value in assay [5] is “rapidly declined”. Further, the “reduction in cAMP as compared to GPCs (area under the curve)” value in assay [5] stood at 70%. Besides, in assay [6], the “change in cAMP levels” value was “little to no change”. The “decline in apoptosis (sub-G0)” value in the assay on Nf1−/− astrocytes is given as 27+/−12%.
